Measurements reported in patent US20210338626A1, “METHODS FOR TREATING OR PREVENTING A VIRAL INFECTION OR INHIBITING VIRAL REPLICATION” (Dalcor Pharma UK Ltd., Leatherhead, Zug Branch, priority 2020, published 2021).
Read-outs that look alike come from different tables or passages of the source.

Experiments:
[1] = in vivo; cited from earlier work
[2] = target: T1, cholesteryl ester transfer protein (Homo sapiens, UniProt P11597); conditions: cited from earlier work
T1 sequence (P11597 18-493): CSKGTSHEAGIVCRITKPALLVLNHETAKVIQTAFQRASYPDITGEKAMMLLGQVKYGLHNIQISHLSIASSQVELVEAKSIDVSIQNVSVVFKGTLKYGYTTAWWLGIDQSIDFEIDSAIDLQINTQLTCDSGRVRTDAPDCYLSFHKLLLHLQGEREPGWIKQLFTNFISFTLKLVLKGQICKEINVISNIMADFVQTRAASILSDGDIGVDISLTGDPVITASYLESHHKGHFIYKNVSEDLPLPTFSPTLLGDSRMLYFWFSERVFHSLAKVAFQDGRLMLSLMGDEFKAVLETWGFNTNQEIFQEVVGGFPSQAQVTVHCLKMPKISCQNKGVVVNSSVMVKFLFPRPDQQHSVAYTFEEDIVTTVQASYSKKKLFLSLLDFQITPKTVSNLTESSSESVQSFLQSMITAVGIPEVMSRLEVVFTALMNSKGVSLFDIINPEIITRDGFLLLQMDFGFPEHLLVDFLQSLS

[3] = design: species or system rats; conditions: rat, in vivo
From the text: (§1) In rats, the percentages of an administered oral dose excreted into the feces as dalcetrapib-ester and dalcetrapib thiol plus dalcetrapib thiol dimer are 41.1% and 17.8%, respectively. The corresponding values following oral administration in monkeys are 11.6% and 22.2%.

SARS-CoV-2 = SARS-CoV-2 plaque formation in Vero E6 cells; format: cell-based; conditions: Severe acute respiratory syndrome coronavirus 2, Vero C1008, pre-incubated one hour before addition of virus, read-out: IC50, SARS-CoV-2 plaque formation / viral replication
[4] = design: species or system monkeys; conditions: monkey, in vivo
From the text: as §1

[5] = design: species or system rodents; conditions: in vivo, po
From the text: as §1

Row | SMILES | safety issues from formation of covalent protein adducts [1] | IC50 ([2]; pre-incubation 1 hour) | IC50 ([2]; pre-incubation 24 hours) | percentage of administered oral dose excreted into the feces as dalcetrapib thiol plus dalcetrapib thiol dimer [3] | percentage of administered oral dose excreted into the feces as dalcetrapib-ester [3] | IC50 (SARS-CoV-2) | percentage of administered oral dose excreted into the feces as dalcetrapib thiol plus dalcetrapib thiol dimer [4] | percentage of administered oral dose excreted into the feces as dalcetrapib-ester [4] | tissue distribution [5]
1 | CCC(CC)CC1(C(=O)Nc2ccccc2SC(=O)C(C)C)CCCCC1 [Dalcetrapib] | has not been observed | 1180 nM | 45 nM | 17.8% | 41.1% | 17.8 µM | 22.2% | 11.6% | distributes in all tissues including the lungs and gastrointestinal tract
2 | CCC(CC)CC1(C(=O)Nc2ccccc2S)CCCCC1 [Dalcetrapib thiol] | – | – | – | – | – | ~17.8 µM | – | – | –
